Laboratory results reported in patent US4032635A, “Pharmaceutical method for the therapy of immune diseases” (Zaidan Hojin Biseibutsu Kagaku Kenkyu Kai, priority 1975, dated 1977).
Like-named read-outs stand apart in the source and are kept apart here.

Columns and labels:
[1] = system: experimental allergic encephalomyelitis (EAE); conditions: cited from earlier work
[2] = system: nucleic acid and/or protein synthesis; conditions: cited from earlier work
[3] = system: autoimmune diseases, some infection allergies and dermatological contact allergies, transplantation immunological responses; conditions: in vivo; cited from earlier work
[4] = system: humoral and cell-mediated immunities; conditions: cited from earlier work
[5] = system: Delayed-Type Hypersensitivity (DTH) to sheep red blood cells (SRBC); test: Suppression of delayed-type hypersensitivity (SRBC footpad swelling); assay type: in vivo, mouse; conditions: for inhibition in vivo at 1 mg: Erythrocyte, 1 mg./mouse i.p.; for suppression of DTH reaction: anti-inflammatory drugs and protease-inhibitors, 1 mg./mouse
Procedure: The compounds of Formula (I) show suppression of various delayed-type hypersensitivity. In reference to the method by Lagrange [J. Exp. Med. 139, 528 (1974)], 10^8 sheep red blood cells (SRBC) without adjuvant were subcutaneously injected into the mouse hind footpad to immunize the animal. Four days later the animals were challenged by subcutaneous injection of 10^8 SRBC into another footpad. DTH response was measured as the increase in the thickness of footpad 24 hours after the injection of SRBC.
Varying doses of Compound-1 were administered orally or intraperitoneally either at the time of immunization (day 0) or challenge (day 4).
In FIG. 1 the ordinate indicates the swelling (× 0.1 mm.) of mice footpads on day 5 and the abscissa indicates the dose of Compound-1 per mouse administered by the oral (right) and intraperitoneal (left) routes. Solid line curve indicates the relationship when Compound-1 was administered on day 0 and the dotted line curve indicates the relationship when given on day 4.
The compounds were administered intraperitoneally in a dose 1 mg./mouse at the time of immunization (day 0) or challenge (day 4). Table 1 includes the results of humoral antibody response described later.

[6] = system: primary antibody formation to sheep red blood cells (SRBC), spleen cells; test: Suppression of primary antibody formation (plaque forming cells, Jerne's method); assay type: in vivo, mice (ddY-strain); conditions: for inhibition in vivo at 1 mg: Erythrocyte, ip, 96 h, 1 mg./mouse i.p., read-out: Suppression, Plaque Forming Cells (suppression rate of primary antibody formation)
Procedure: 10^8 sheep red blood cells (SRBC) were injected intravenously into ddY-strain mice to immunize the animals, when the compounds of Formula (I) were administered intraperitoneally.
Each compound was administered intraperitoneally in the dosage of 1 mg./mouse.

[7] = system: experimental allergic encephalomyelitis (EAE); test: Suppression of experimental allergic encephalomyelitis (EAE); assay type: in vivo, guinea pigs; conditions: for recurrence of paralysis after discontinuation: after discontinuation of the drug
Text: By injecting basic protein (B.P.) the extract from central nervous tissue, together with Freund's complete adjuvant, a typical EAE symptom develops. Guinea pigs show drastic reduction of body weight and development of paralysis about ten days after injection with BP and they finally die within 17 days after the injection of BP.

[8] = system: contact allergy induced by dinitrochlorobenzene (DNCB); test: Suppression of contact allergy induced by dinitrochlorobenzene (DNCB); assay type: in vivo, guinea pigs; parameters: key to Skin Lesion Score, Animal No. 1 / Skin Lesion Score, Animal No. 2 / Skin Lesion Score, Animal No. 3: +: slight erythema; ++: marked erythema and slight swelling; +++: marked induration and swelling; conditions: 100 mg./kg. i.p. at 0.5, 24 and 48 hours before challenge; for Skin Lesion Score, Animal No. 1 / Skin Lesion Score, Animal No. 2 / Skin Lesion Score, Animal No. 3: control None +++
Procedure: For example, approximately 0.1 ml. of a 10% solution of DNCB in acetone was administered percutaneously on the ear. Fourteen days later animals were skin tested on a shaved flank by topical spotting (about 0.05 ml.) of a 0.1% solution of DNCB in acetone. Skin lesions were evaluated and scored 24 hours later as follows:
Guinea pigs readily develop contact hypersensitivities of the delayed-type by simple topical application of DNCB.

[9] = system: systemic anaphylactic shock; test: Suppression of systemic anaphylactic shock (egg albumin); assay type: in vivo, mice; conditions: for time of death after induction, Animal No. 1: control 16; for time of death after induction, Animal No. 2: control 25; for time of death after induction, Animal No. 3: control 27; for time of death after induction, Mouse No. 1: control 15
Procedure: The mice were immunized by a subcutaneous injection of a mixture of 0.1 ml. (100 mcg.) egg albumin and 0.1 ml. Freund's complete adjuvant, and used for experiment four months thereafter. In control mice sensitized in the above manner, the shock symptom emerged after induction by intravenous injection of 100 mcg. egg albumin and most of the animals died from shock within about 40 minutes.
Table 3A show the suppression effect with Compound -1 when given as a single dose (0.25 or 1.0 mg./mouse, i.p.) at the time of sensitization. […] In the animals receiving the test drug, the time until death after induction was somewhat delayed and most of the animals survived the shock.

[10] = system: passive cutaneous anaphylaxis (PCA); test: Suppression of passive cutaneous anaphylaxis (PCA); assay type: in vivo, guinea pigs; conditions: dilution giving a 10 mm. diameter blue zone; for Max. Dilution of Antiserum, i.p.: i.p. 50 mg./kg.; for Max. Dilution of Antiserum, Oral: oral 100 mg./kg., control 1060
Procedure: The compounds of Formula (I) are active in suppressing passive cutaneous anaphylaxis (PCA) in guinea pigs. Guinea pigs received intradarmally serial dilutions of antiserum (0.1 ml.), which was obtained from guinea pigs immunized with a mixture of egg albumin and Freund's complete adjuvant. At the time of sensitization with antiserum, the compound of Formula (I) was administered either orally (100 mg./kg.) or intraperitoneally (50 mg./kg.).
Four hours later the animals were challenged by intravenous injection of a mixture of 5 mg. egg albumin and Evans blue dye. The reaction was measured 30 minutes later by the blue zone which emerged at the point of antiserum injection.

[11] = system: primary antibody formation in spleen cell culture; test: Antibody formation in spleen cell culture in vitro (hemolytic plaque assay); assay type: cell-based, mice
Procedure: Additional experiment to evaluate the effect of Compound-1 on primary antibody formation was made by spleen cell culture in vitro. According to the method described by Mishell and Dutton [J. Exp. Med., 126, 423 (1967)], dissociated spleen cells prepared from normal mice spleens were cultured with SRBC as antigen and at initiation of cultures Compound-1 was added, and then four days later, antibody formation in cultures was determined by Jerne's hemolytic plaque assay.

[12] = Acute toxicity, intraperitoneal; conditions: mouse, in vivo, ip, mice, read-out: LD50 (approximate)
Procedure: Acute toxicological studies were carried out on mice by intraperitoneal administration of the compounds of Formula (I). The approximate LD50 values for representative compounds are given as follows: […]

rats = test: One-month daily administration; assay type: in vivo; conditions: oral or i.p., daily 12.5, 50 or 200 mg./kg.
Procedure: Compound-1 and Compound-2 were given orally or intraperitoneally to rats in daily doses of 12.5, 50 or 200 mg./kg., respectively, for one month.

red blood cells = test: Heat-induced hemolysis of red blood cells / cell membrane stabilization; assay type: cell-based; conditions: Compound-1 compared with mefenamic acid or indomethacin
[13] = system: carrageenin-induced edema; conditions: 1 mg./mouse; cited from earlier work
[14] = 96 h, at challenge (day 4), read-out: Suppression, Delayed-Type Hypersensitivity, Administered at Induction (suppression rate)
[15] = ip, 0 h, at immunization (day 0), read-out: Suppression, Delayed-Type Hypersensitivity, Administered at Immunization (suppression rate)
[16] = 10 mg. i.p. once daily, days 3 to 21 after antigen, five animals
[17] = 0.25 mg./mouse i.p. at the time of sensitization
[18] = 1 mg./mouse i.p. at 0.5 and 5 hours before challenge
[19] = 1.0 mg./mouse i.p. at the time of sensitization

## Sc1ncnc2nc[nH]c12 [6-mercaptopurine]
[1]; after discontinuation and following a latent period
  EAE after discontinuation of the drug (known agents): the animals often develop paralytic EAE
[1]; at such high doses as would cause toxicity
  suppression of development of EAE (known agents): can suppress the development of EAE
[2]
  effect on nucleic acid and/or protein synthesis: disrupt nucleic acid and/or protein synthesis
[3]
  effectiveness in therapy of autoimmune diseases, allergies, transplantation responses: effective in the therapy of autoimmune diseases, some infection allergies and dermatological contact allergies
[4]
  dose at which effective / cytotoxicity: effective in general only at near-lethal doses owing to their cytotoxicity
  inhibition of humoral and cell-mediated immunities: inhibit both humoral and cell-mediated immunities

## O=C(Nc1cc(Cl)c(O)c(Cl)c1)c1ccccc1O [Compound-1, 3',5'-Dichloro-2,4'-dihydroxybenzanilide]
[5]; [14]
  inhibition in vivo at 1 mg: > 75%
[5]; [15]
  inhibition in vivo at 1 mg: 0 to 25%
[5]; varying doses, oral or i.p., at challenge (day 4)
  DTH suppression, administered on day 4 (FIG. 1): DTH was suppressed in mice sensitized by footpad inoculation with SRBC
[5]; varying doses, oral or i.p., at sensitization (day 0)
  DTH suppression, given at sensitization (day 0) (FIG. 1): not active when given at the time of sensitization (day 0)
[6]; 1000, 250, 62.5 and 15.6 mcg./mouse i.p.
  primary antibody formation in spleen cells of treated mice (FIG. 3): apparently suppressed in proportion to increased amounts of Compound-1
[6]
  inhibition in vivo at 1 mg: > 75%
[7]; 10 mg. i.p. once daily, days 3 to 21, four of five animals
  time of paralysis after antigen injection: 13 to 16 days
[7]; [16]
  animals with paralysis to a certain degree and course of symptoms: four others showed paralysis to a certain degree at 13-16 days but the symptoms of EAE soon disappeared
  animals without sign of paralysis: one gave no sign of the development of paralysis
[7]
  recurrence of paralysis after discontinuation: no more paralytic symptoms recurred
[7]; listed as compound-1
  recurrence of paralysis after discontinuation: without recrudescence of paralysis after discontinuation of the drug
[7]; guinea pigs
  suppressive effect on EAE: potent suppressive effect on EAE
[8]
  inhibition of the response to DNCB: significant inhibition of the response to DNCB
  Skin Lesion Score, Animal No. 1: +
  Skin Lesion Score, Animal No. 2: +
  Skin Lesion Score, Animal No. 3: ++
[9]; [17]
  time of death after induction, Animal No. 1: 18 min
  time of death after induction, Animal No. 2: 21 min
  time of death after induction, Animal No. 3: 22 min
[9]; [18]
  time of death after induction, Mouse No. 1: 35 min
[9]; [19]
  time of death after induction, Animal No. 1: 22 min
  time of death after induction, Animal No. 2: 23 min
  time of death after induction, Animal No. 3: 30 min
[10]; control 1024
  Max. Dilution of Antiserum, i.p.: 64
[10]; control 1350
  Max. Dilution of Antiserum, i.p.: 315
[10]
  Max. Dilution of Antiserum, Oral: 548
[11]; in vitro
  cytotoxicity / anti-proliferative effect in vitro: not cytotoxic nor anti-proliferative in vitro
[11]; spleen cell culture in vitro
  number of nucleated cells in culture: no changes in the number of nucleated cells
  viable cell count in culture: no changes in the number of nucleated cells nor in the viable cell count
[11]; spleen cell culture in vitro, four days
  number of plaque forming cells in culture: significantly decreased
[12]
  LD50: 2400 mg/kg
rats
  symptoms or abnormality attributable to the drug: no particular symptoms or abnormality attributable to the drug dosage was noted
  weight gain: normal
Red blood cells
  suppression of heat-induced hemolysis of red blood cells: suppressed the heat-induced hemolysis of red blood cells to about the same extent as did mefenamic acid or indomethacin

## O=C(Nc1cc(Cl)cc(Cl)c1O)c1ccccc1O [Compound-2, 3',5'-Dichloro-2,2'-dihydroxybenzanilide]
[5]; [14]
  inhibition in vivo at 1 mg: > 75%
[5]; [15]
  inhibition in vivo at 1 mg: 0 to 25%
[6]
  inhibition in vivo at 1 mg: > 75%
[8]
  inhibition of the response to DNCB: significant inhibition of the response to DNCB
  Skin Lesion Score, Animal No. 1: +
  Skin Lesion Score, Animal No. 2: ++
  Skin Lesion Score, Animal No. 3: ++
[9]; [18]
  time of death after induction, Mouse No. 1: 10 min
[9]; 1 mg./mouse i.p. at 0.5 and 5 hours before challenge, control 18
  time of death after induction, Mouse No. 2: 35 min
[10]
  Max. Dilution of Antiserum, Oral: 736
[12]
  LD50: 2500 mg/kg
rats
  symptoms or abnormality attributable to the drug: no particular symptoms or abnormality attributable to the drug dosage was noted
  weight gain: normal

## Cn1cnc([N+](=O)[O-])c1Sc1ncnc2nc[nH]c12 [azathioprine]
[2]
  effect on nucleic acid and/or protein synthesis: disrupt nucleic acid and/or protein synthesis
[4]
  dose at which effective / cytotoxicity: effective in general only at near-lethal doses owing to their cytotoxicity
  inhibition of humoral and cell-mediated immunities: inhibit both humoral and cell-mediated immunities

## COc1ccc2c(c1)c(CC(=O)O)c(C)n2C(=O)c1ccc(Cl)cc1 [indomethacin]
[5]
  suppression of DTH reaction: little suppression of this DTH reaction
Red blood cells
  suppression of heat-induced hemolysis of red blood cells: about the same extent
[13]
  suppression of carrageenin-induced edema: strongly suppress carrageenin-induced edema

## Cc1cccc(Nc2ccccc2C(=O)O)c1C [mefenamic acid]
[5]
  suppression of DTH reaction: little suppression of this DTH reaction
Red blood cells
  suppression of heat-induced hemolysis of red blood cells: about the same extent
[13]
  suppression of carrageenin-induced edema: strongly suppress carrageenin-induced edema
